Read-outs that look alike come from different tables or passages of the source.
Tests used:
Assay type in all cases: cell-based
human TLR8 = target: T1, human TLR8 (Homo sapiens, UniProt Q9NR97); assay: TLR8 inhibition reporter assay (HEK-Blue cells, secreted embryonic alkaline phosphatase reporter); conditions: HEK-Blue cells overexpressing human TLR8, stimulated with R848 15.9 μM; read-out: TLR 8 IC50
T1 construct: host or cells: HEK-Blue cells (HEK293-derived reporter line)
T1 sequence (Q9NR97 27-1041): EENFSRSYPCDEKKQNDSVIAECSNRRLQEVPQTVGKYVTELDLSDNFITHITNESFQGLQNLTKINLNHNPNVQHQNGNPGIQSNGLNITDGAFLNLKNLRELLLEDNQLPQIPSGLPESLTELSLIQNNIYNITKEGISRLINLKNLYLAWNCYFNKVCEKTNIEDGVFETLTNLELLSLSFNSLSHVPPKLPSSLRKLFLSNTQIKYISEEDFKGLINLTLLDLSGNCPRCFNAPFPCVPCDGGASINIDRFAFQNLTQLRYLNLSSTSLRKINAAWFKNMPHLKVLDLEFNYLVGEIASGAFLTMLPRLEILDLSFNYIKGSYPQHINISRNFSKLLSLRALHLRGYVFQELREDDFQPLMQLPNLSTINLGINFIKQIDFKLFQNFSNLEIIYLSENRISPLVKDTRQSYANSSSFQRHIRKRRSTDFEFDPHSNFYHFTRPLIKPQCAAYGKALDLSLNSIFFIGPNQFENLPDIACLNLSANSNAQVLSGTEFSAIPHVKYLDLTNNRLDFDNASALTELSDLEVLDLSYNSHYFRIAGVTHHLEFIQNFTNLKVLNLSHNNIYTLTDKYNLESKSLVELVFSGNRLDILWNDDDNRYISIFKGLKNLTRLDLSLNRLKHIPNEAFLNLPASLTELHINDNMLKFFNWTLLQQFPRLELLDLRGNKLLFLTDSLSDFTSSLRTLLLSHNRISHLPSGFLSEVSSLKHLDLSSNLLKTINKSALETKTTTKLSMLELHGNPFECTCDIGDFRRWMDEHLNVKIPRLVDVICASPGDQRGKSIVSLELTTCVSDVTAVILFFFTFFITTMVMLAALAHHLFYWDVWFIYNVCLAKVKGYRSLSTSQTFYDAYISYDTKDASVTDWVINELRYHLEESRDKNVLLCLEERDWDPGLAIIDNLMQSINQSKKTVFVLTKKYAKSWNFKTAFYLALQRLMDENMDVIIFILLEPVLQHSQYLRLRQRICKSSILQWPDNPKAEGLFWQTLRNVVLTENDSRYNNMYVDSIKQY
Protocol: TLR7/8/9 Inhibition Reporter Assays
HEK-Blue™-cells (Invivogen) overexpressing human TLR7, TLR8 or TLR9 receptors were used for screening inhibitors of these receptors using an inducible SLAP (secreted embryonic alkaline phosphatase) reporter gene under the control of the […] minimal promoter fused to five NF-κB and AP-1-binding sites. Briefly, cells are seeded into Greiner 384 well plates (15000 cells per well for TLR7, 20,000 for TLR8 and 25,000 for TLR9) and then treated with test compounds in DMSO to yield a final dose response concentration range of 0.05 nM-50 μM. After a 30 minute compound pre-treatment at room temperature, the cells are then stimulated with a TLR7 ligand (gardiquimod at a final concentration of 7.5 μM), TLR8 ligand (R848 at a final concentration of 15.9 μM) or TLR9 ligand (ODN2006 at a final concentration of 5 nM) to activate NF-κB and AP-1 which induce the production of SLAP. After a 22 hour incubation at 37° C., […], SLAP levels are determined with the addition of HEK-Blue™ Detection reagent (Invivogen), a cell culture medium that allows for detection of SLAP, according to manufacturer's specifications. The percent inhibition is determined as the […] in the HEK-Blue signal present in wells treated with agonist plus DMSO alone compared to wells treated with a known inhibitor.

human TLR9 = target: T2, human TLR9 (Homo sapiens, UniProt Q9NR96); assay: TLR9 inhibition reporter assay (HEK-Blue cells, secreted embryonic alkaline phosphatase reporter)
T2 construct: host or cells: HEK-Blue cells (HEK293-derived reporter line)
T2 sequence (Q9NR96 26-1032): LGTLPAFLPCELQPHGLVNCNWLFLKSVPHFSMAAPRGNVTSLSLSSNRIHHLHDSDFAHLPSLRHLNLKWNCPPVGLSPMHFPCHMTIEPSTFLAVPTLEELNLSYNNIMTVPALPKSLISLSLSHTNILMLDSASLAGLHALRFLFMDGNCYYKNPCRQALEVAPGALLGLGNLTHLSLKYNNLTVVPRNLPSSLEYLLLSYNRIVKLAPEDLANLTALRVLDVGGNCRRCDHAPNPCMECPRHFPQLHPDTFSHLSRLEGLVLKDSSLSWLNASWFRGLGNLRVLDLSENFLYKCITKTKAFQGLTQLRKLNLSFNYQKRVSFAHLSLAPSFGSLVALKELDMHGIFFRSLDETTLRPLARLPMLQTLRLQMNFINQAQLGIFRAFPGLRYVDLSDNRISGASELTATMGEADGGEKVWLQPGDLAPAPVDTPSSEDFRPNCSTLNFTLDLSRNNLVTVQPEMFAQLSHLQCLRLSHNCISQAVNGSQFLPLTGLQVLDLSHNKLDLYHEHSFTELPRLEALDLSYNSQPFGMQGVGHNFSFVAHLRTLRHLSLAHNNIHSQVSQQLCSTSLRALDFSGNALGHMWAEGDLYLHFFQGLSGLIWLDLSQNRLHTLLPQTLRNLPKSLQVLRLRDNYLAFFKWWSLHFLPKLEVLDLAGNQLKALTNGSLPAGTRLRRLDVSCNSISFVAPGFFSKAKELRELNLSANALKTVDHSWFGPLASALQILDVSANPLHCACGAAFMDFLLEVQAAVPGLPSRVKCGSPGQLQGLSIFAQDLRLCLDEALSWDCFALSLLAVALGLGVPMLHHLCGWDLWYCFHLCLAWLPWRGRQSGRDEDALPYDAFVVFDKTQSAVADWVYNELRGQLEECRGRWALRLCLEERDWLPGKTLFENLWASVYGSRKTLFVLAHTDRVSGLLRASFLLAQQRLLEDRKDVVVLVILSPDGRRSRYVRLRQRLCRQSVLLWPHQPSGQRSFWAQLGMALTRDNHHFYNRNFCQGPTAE
Procedure, shortened: (§1)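 Steps: seed receptor-specific HEK-Blue cells; add compound, 0.05 nM–50 μM; wait 30 min at room temperature; add final gardiquimod 7.5 μM, R848 15.9 μM or ODN2006 5 nM for TLR7, TLR8 or TLR9; incubate 22 h at 37 °C; detect NF-κB/AP-1-driven SEAP.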

human TLR7 = target: T3, human TLR7 (Homo sapiens, UniProt Q9NYK1); assay: TLR7 inhibition reporter assay (HEK-Blue cells, secreted embryonic alkaline phosphatase reporter); conditions: HEK-Blue cells overexpressing human TLR7, stimulated with gardiquimod 7.5 μM; read-out: TLR 7 IC50
T3 construct: host or cells: HEK-Blue cells (HEK293-derived reporter line)
T3 sequence (Q9NYK1 27-1049): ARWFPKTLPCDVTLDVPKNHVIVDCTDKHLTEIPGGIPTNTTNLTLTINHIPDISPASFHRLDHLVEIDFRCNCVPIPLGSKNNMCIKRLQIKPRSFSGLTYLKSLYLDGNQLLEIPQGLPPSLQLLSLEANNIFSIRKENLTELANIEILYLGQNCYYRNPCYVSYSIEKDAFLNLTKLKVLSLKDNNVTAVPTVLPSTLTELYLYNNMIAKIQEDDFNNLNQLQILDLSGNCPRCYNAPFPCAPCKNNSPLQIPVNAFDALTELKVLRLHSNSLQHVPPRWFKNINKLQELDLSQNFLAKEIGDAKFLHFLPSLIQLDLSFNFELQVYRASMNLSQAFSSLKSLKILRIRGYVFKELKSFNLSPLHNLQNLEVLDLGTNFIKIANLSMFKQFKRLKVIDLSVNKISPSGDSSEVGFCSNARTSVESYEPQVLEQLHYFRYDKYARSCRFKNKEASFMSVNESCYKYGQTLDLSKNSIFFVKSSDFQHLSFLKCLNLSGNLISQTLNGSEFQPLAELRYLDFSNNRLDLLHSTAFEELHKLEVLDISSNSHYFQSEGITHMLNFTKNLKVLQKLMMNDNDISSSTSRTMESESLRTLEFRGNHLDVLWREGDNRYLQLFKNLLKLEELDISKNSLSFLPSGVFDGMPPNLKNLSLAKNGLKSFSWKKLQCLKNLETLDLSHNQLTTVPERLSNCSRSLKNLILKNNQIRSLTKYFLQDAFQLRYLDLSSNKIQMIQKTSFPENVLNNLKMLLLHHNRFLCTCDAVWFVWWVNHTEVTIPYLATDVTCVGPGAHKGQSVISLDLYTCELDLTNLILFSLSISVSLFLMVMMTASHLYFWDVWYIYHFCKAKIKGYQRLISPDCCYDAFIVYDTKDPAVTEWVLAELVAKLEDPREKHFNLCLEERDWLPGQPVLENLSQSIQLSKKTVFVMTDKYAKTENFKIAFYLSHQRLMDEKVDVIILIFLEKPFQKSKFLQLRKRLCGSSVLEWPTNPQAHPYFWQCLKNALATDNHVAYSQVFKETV
Procedure, shortened: as §1

[1] = HEK-Blue cells overexpressing human TLR9, stimulated with ODN2006 5 nM, read-out: TLR 9 IC50
[2] = HEK-Blue human TLR9 reporter cells
[3] = HEK-Blue cells overexpressing human TLR9, stimulated with ODN2006 5 nM, 22 hour incubation, reporter readout

IC50 (human TLR8) | IC50 (human TLR9; [1]) | IC50 (human TLR9; [2]) | IC50 (human TLR7) | IC50 (human TLR9; [3]) | IC50 (human TLR9) | SMILES
14900 nM | 76 nM | 76 nM | 2900 nM |  |  | COc1cc(-c2nc3c(C)cc(C4CCN(C5CC6CCC(C5)N6CC(C)C)CC4)cc3[nH]2)cn2ncnc12 (stereo not shown) [Example 359, 6-(6-(1-(8-isobutyl-8-azabicyclo[3.2.1]octan-3-yl)piperidin-4-yl)-4-methyl-1H-benzo[d]imidazol-2-yl)-8-methoxy-[1,2,4]triazolo[1,5-a]pyridine]
> 50000 nM |  |  | 2200 nM | 71 nM |  | CC(C)N1C2CCC1CC(N1CCC(c3cc(F)c4nc(-c5ccc(S(C)(=O)=O)cc5)n(C5CC5)c4c3)CC1)C2 (single isomer, unassigned) [Example 117, 1-cyclopropyl-4-fluoro-6-(1-(8-isopropyl-8-azabicyclo[3.2.1]octan-3-yl)piperidin-4-yl)-2-(4-(methylsulfonyl)phenyl)-1H-benzo[d]imidazole]
> 50000 nM | 3.3 nM | 3.3 nM | 2100 nM |  |  | Cn1c(-c2ccc(S(C)(=O)=O)cc2)nc2c(F)cc(C3CCN(C4CCCN(CC5CC5)CC4)CC3)cc21 (single isomer, unassigned) [Example 299, 6-(1-(1-(cyclopropylmethyl)azepan-4-yl)piperidin-4-yl)-4-fluoro-1-methyl-2-(4-(methylsulfonyl)phenyl)-1H-benzo[d]imidazole]
> 50000 nM |  |  | 7100 nM | 19 nM |  | COc1ccc(-c2nc3c(C)cc(C4CCN(C5CCN(CC(C)C)CC5)CC4)cc3n2C)cc1OC [Example 15, 2-(3,4-dimethoxyphenyl)-6-(1′-isobutyl-[1,4′-bipiperidin]-4-yl)-1,4-dimethyl-1H-benzo[d]imidazole tris(2,2,2-trifluoroacetate)]
30000 nM | 590 nM |  | 6400 nM | 590 nM |  | COc1ccc(-c2nc3cc(C4CCN(C5CCN(C6CC6)CC5)CC4)ccc3n2CC(F)F)cc1OC [Example 39, 5-(1′-cyclopropyl-[1,4′-bipiperidin]-4-yl)-1-(2,2-difluoroethyl)-2-(3,4-dimethoxyphenyl)-1H-benzo[d]imidazole]
3200 nM | 227 nM |  | 400 nM | 230 nM |  | Cc1cc(-c2ccc(CN3C[C@H]4CN(C)C[C@H]4C3)c(F)c2)cc2c1nc(-c1ccc(S(C)(=O)=O)cc1)n2C [Example 388, 6-(3-fluoro-4-((cis-5-methylhexahydropyrrolo[3,4-c]pyrrol-2(1H)-yl)methyl)phenyl)-1,4-dimethyl-2-(4-(methylsulfonyl)phenyl)-1H-benzo[d]imidazole]
1000 nM | 5.3 nM |  | 1500 nM | 5.3 nM |  | Cn1c(-c2ccc(S(C)(=O)=O)cc2)nc2c(F)cc(-c3ccc(CN4CCC(N5CCCC5)CC4)cc3)cc21 [Example 409, 4-fluoro-1-methyl-2-(4-(methylsulfonyl)phenyl)-6-(4-((4-(pyrrolidin-1-yl)piperidin-1-yl)methyl)phenyl)-1H-benzo[d]imidazole]
300 nM | 174 nM |  | 1300 nM | 174 nM |  | CN(C)C1CCN(Cc2ccc(-c3ccc4nc(-c5ccc(S(C)(=O)=O)cc5F)n(C)c4c3)cc2)CC1 [Example 380, 1-(4-(2-(2-fluoro-4-(methylsulfonyl)phenyl)-1-methyl-1H-benzo[d]imidazol-6-yl)benzyl)-N,N-dimethylpiperidin-4-amine]
> 50000 nM | 97 nM |  | 18600 nM |  | 97 nM | CC(C)CN1C2CCC1CC(N1CCC(c3ccc4nc(-c5ccc(S(C)(=O)=O)cc5)n(C)c4c3F)CC1)C2 (single isomer, unassigned) [Example 266, 7-fluoro-6-(1-(8-isobutyl-8-azabicyclo[3.2.1]octan-3-yl)piperidin-4-yl)-1-methyl-2-(4-(methylsulfonyl)phenyl)-1H-benzo[d]imidazole]
